≈ marks a conversion by molar mass, not a printed value.
What was measured:
Format in all cases: cell-based
[1] = tested on: Enterococcus faecalis (EFA); experiment: MIC, two-fold agar dilution (CLSI), clinical isolates
Text: (§1) 1. The invention adopts the two-fold agar dilution method recommended by the operating procedure of antimicrobial susceptibility testing set by American Clinical and Laboratory Standards Institute (CLSI) to determine the Minimum Inhibitory Concentration (MIC) of the test samples against the tested strains.

[2] = tested on: Enterococcus faecium (EFM); experiment: as above
Text: as §1

[3] = tested on: Escherichia coli (including ESBLs, non-ESBLs); experiment: as above
Text: as §1

[4] = tested on: Moraxella catarrhalis (BCA); experiment: as above
Text: as §1

[5] = tested on: Streptococcus pneoumoniae (SPN); experiment: as above
Text: as §1

[6] = tested on: methicillin-resistant Staphylococcus aureus (MRSA); experiment: as above
Text: as §1

[7] = tested on: methicillin-resistant Staphylococcus epidermidis (MRSE); experiment: as above
Text: as §1

[8] = tested on: methicillin-sensitive Staphylococcus aureus (MSSA); experiment: as above
Text: as §1

[9] = tested on: methicillin-sensitive Staphylococcus epidermidis (MSSE); experiment: as above
Text: as §1

[10] = tested on: HCT-116 colorectal cancer cell line; experiment: CCK-8 proliferation inhibition; conditions: Homo sapiens, HCT-116, 72 h, concentration of 30 μM; 72 hours; CCK-8; read-out: HCT116 inhibition rate/%
Description: (1) HCT-116 colorectal cancer cell line, A549 lung cancer cell line, MGC-803 gastric cancer cell line, BEL-7402 liver cancer cell line, Jurkat T cell leukemia cell line, HL60 acute myeloid leukemia cell line, Hela cervical cancer cell line, MCF-7 breast cancer cell line, PC3 prostate cancer cell line and SAOS-2 osteosarcoma cell line were made into single cell suspension, 180 μL of which was inoculated into 96-well culture plate, which was cultured overnight in CO2 incubator (37° C., 5% CO2, 95% air).
(2) Each of the spiro three-membered ring, spiro five membered ring peptide deformylase inhibitors was dissolved in DMSO, and was further formulated into drug solution with required different final concentration using corresponding cell culture medium. The drug solutions were added to the above cells respectively (20 μL/well), with the control group added with 1‰ DMSO, and cultured in a CO2 incubator for 72 hours.
(3) After incubation for 72 hours, the culture solution was decanted, and 100 μL of 1:10 diluted CCK-8 solution was added.
Wherein, in step (1), the concentration of the single cell suspension was 2000 cells/well.
Wherein, in step (2), HCT-116 cells were cultured in McCoy's 5A medium (containing 10% newborn bovine serum, 1% double antibody); A549 and PC3 cells were cultured in F12 medium (containing 10% newborn bovine serum, 1% double antibody); MGC-803, BEL-7402, SAOS-2, Jurkat and HL60 cells were cultured in 1640 medium (containing 10% newborn bovine serum, 1% double antibody); and MCF-7 and Hela cells were cultured in DMEM high glucose medium (containing 10% newborn bovine serum, 1% double antibody).

## CCCC[C@H](CN(O)C=O)C(=O)N1CC2(CC2)C[C@H]1C(=O)Nc1nncs1 [Example 23, (S)-5-((R)-2-((N-hydroxyformamido)methyl)hexanoyl)-N-(1,3,4-thiadiazol-2-yl)-5-azaspiro[2.4]heptane-6-carboxamide]
[1]; strain EFA 15-1
  MIC (anti-bacterial activity): 32 µg/mL (≈ 80.9 µM)
[1]; strain EFA 15-2
  MIC (anti-bacterial activity): 32 µg/mL (≈ 80.9 µM)
[1]; strain EFA 15-3
  MIC (anti-bacterial activity): 1 µg/mL (≈ 2.53 µM)
[1]; strain EFA 15-4
  MIC (anti-bacterial activity): 32 µg/mL (≈ 80.9 µM)
[1]; strain EFA 15-5
  MIC (anti-bacterial activity): 32 µg/mL (≈ 80.9 µM)
[1]; strain EFA 15-6
  MIC (anti-bacterial activity): 32 µg/mL (≈ 80.9 µM)
[1]; strain EFA 15-9
  MIC (anti-bacterial activity): 32 µg/mL (≈ 80.9 µM)
[2]; strain EFM 15-1
  MIC (anti-bacterial activity): 1 µg/mL (≈ 2.53 µM)
[2]; strain EFM 15-2
  MIC (anti-bacterial activity): 8 µg/mL (≈ 20.2 µM)
[2]; strain EFM 15-3
  MIC (anti-bacterial activity): 0.5 µg/mL (≈ 1.26 µM)
[2]; strain EFM 15-4
  MIC (anti-bacterial activity): 8 µg/mL (≈ 20.2 µM)
[2]; strain EFM 15-5
  MIC (anti-bacterial activity): 0.5 µg/mL (≈ 1.26 µM)
[2]; strain EFM 15-6
  MIC (anti-bacterial activity): 8 µg/mL (≈ 20.2 µM)
[3]; strain ECO+ 15-1
  MIC (anti-bacterial activity): > 32 µg/mL
[3]; strain ECO+ 15-2
  MIC (anti-bacterial activity): > 32 µg/mL
[3]; strain ECO+ 15-3
  MIC (anti-bacterial activity): > 32 µg/mL
[3]; strain ECO+ 15-4
  MIC (anti-bacterial activity): > 32 µg/mL
[3]; strain ECO− 15-1
  MIC (anti-bacterial activity): > 32 µg/mL
[3]; strain ECO− 15-2
  MIC (anti-bacterial activity): > 32 µg/mL
[3]; strain ECO− 15-3
  MIC (anti-bacterial activity): > 32 µg/mL
[3]; strain ECO− 15-4
  MIC (anti-bacterial activity): > 32 µg/mL
[4]; strain BCA 14-1
  MIC (anti-bacterial activity): 8 µg/mL (≈ 20.2 µM)
[4]; strain BCA 14-4
  MIC (anti-bacterial activity): 4 µg/mL (≈ 10.1 µM)
[4]; strain BCA 14-5
  MIC (anti-bacterial activity): 1 µg/mL (≈ 2.53 µM)
[4]; strain BCA 14-6
  MIC (anti-bacterial activity): 4 µg/mL (≈ 10.1 µM)
[4]; strain BCA 14-7
  MIC (anti-bacterial activity): 2 µg/mL (≈ 5.06 µM)
[4]; strain BCA 14-8
  MIC (anti-bacterial activity): 2 µg/mL (≈ 5.06 µM)
[4]; strain BCA 14-10
  MIC (anti-bacterial activity): 1 µg/mL (≈ 2.53 µM)
[5]; strain SPN 16-2
  MIC (anti-bacterial activity): 15 µg/mL (≈ 37.9 µM)
[5]; strain SPN 16-4
  MIC (anti-bacterial activity): 1 µg/mL (≈ 2.53 µM)
[6]; strain MRSA 15-1
  MIC (anti-bacterial activity): 0.25 µg/mL (≈ 0.632 µM)
[6]; strain MRSA 15-2
  MIC (anti-bacterial activity): 2 µg/mL (≈ 5.06 µM)
[6]; strain MRSA 15-3
  MIC (anti-bacterial activity): 0.25 µg/mL (≈ 0.632 µM)
[6]; strain MRSA 15-4
  MIC (anti-bacterial activity): 2 µg/mL (≈ 5.06 µM)
[7]; strain MRSE 15-1
  MIC (anti-bacterial activity): 0.25 µg/mL (≈ 0.632 µM)
[7]; strain MRSE 15-2
  MIC (anti-bacterial activity): 0.25 µg/mL (≈ 0.632 µM)
[7]; strain MRSE 15-3
  MIC (anti-bacterial activity): 0.25 µg/mL (≈ 0.632 µM)
[7]; strain MRSE 15-7
  MIC (anti-bacterial activity): 1 µg/mL (≈ 2.53 µM)
[8]; strain MSSA 15-3
  MIC (anti-bacterial activity): 1 µg/mL (≈ 2.53 µM)
[8]; strain MSSA 15-4
  MIC (anti-bacterial activity): 1 µg/mL (≈ 2.53 µM)
[8]; strain MSSA 15-5
  MIC (anti-bacterial activity): 0.25 µg/mL (≈ 0.632 µM)
[8]; strain MSSA 15-6
  MIC (anti-bacterial activity): 0.25 µg/mL (≈ 0.632 µM)
[9]; strain MSSE 15-3
  MIC (anti-bacterial activity): 0.25 µg/mL (≈ 0.632 µM)
[9]; strain MSSE 15-4
  MIC (anti-bacterial activity): 0.25 µg/mL (≈ 0.632 µM)
[9]; strain MSSE 15-5
  MIC (anti-bacterial activity): 0.25 µg/mL (≈ 0.632 µM)
[9]; strain MSSE 15-6
  MIC (anti-bacterial activity): 0.25 µg/mL (≈ 0.632 µM)
[10]
  inhibition at 30 µM: 7%

## CCCC[C@H](CN(O)C=O)C(=O)N1CC2(CC2)C[C@H]1c1nc2ccccc2n1CCN(C)C [Example 24]
[1]; strain EFA 15-1
  MIC (anti-bacterial activity): 32 µg/mL (≈ 70.2 µM)
[1]; strain EFA 15-2
  MIC (anti-bacterial activity): 32 µg/mL (≈ 70.2 µM)
[1]; strain EFA 15-3
  MIC (anti-bacterial activity): 8 µg/mL (≈ 17.6 µM)
[1]; strain EFA 15-4
  MIC (anti-bacterial activity): 32 µg/mL (≈ 70.2 µM)
[1]; strain EFA 15-5
  MIC (anti-bacterial activity): 32 µg/mL (≈ 70.2 µM)
[1]; strain EFA 15-6
  MIC (anti-bacterial activity): 32 µg/mL (≈ 70.2 µM)
[1]; strain EFA 15-9
  MIC (anti-bacterial activity): 32 µg/mL (≈ 70.2 µM)
[2]; strain EFM 15-1
  MIC (anti-bacterial activity): 4 µg/mL (≈ 8.78 µM)
[2]; strain EFM 15-2
  MIC (anti-bacterial activity): 8 µg/mL (≈ 17.6 µM)
[2]; strain EFM 15-3
  MIC (anti-bacterial activity): 2 µg/mL (≈ 4.39 µM)
[2]; strain EFM 15-4
  MIC (anti-bacterial activity): 8 µg/mL (≈ 17.6 µM)
[2]; strain EFM 15-5
  MIC (anti-bacterial activity): 4 µg/mL (≈ 8.78 µM)
[2]; strain EFM 15-6
  MIC (anti-bacterial activity): 8 µg/mL (≈ 17.6 µM)
[3]; strain ECO+ 15-1
  MIC (anti-bacterial activity): 8 µg/mL (≈ 17.6 µM)
[3]; strain ECO+ 15-2
  MIC (anti-bacterial activity): 16 µg/mL (≈ 35.1 µM)
[3]; strain ECO+ 15-3
  MIC (anti-bacterial activity): 16 µg/mL (≈ 35.1 µM)
[3]; strain ECO+ 15-4
  MIC (anti-bacterial activity): 16 µg/mL (≈ 35.1 µM)
[3]; strain ECO− 15-1
  MIC (anti-bacterial activity): 8 µg/mL (≈ 17.6 µM)
[3]; strain ECO− 15-2
  MIC (anti-bacterial activity): 16 µg/mL (≈ 35.1 µM)
[3]; strain ECO− 15-3
  MIC (anti-bacterial activity): 32 µg/mL (≈ 70.2 µM)
[3]; strain ECO− 15-4
  MIC (anti-bacterial activity): 16 µg/mL (≈ 35.1 µM)
[4]; strain BCA 14-1
  MIC (anti-bacterial activity): 32 µg/mL (≈ 70.2 µM)
[4]; strain BCA 14-4
  MIC (anti-bacterial activity): 16 µg/mL (≈ 35.1 µM)
[4]; strain BCA 14-5
  MIC (anti-bacterial activity): 8 µg/mL (≈ 17.6 µM)
[4]; strain BCA 14-6
  MIC (anti-bacterial activity): 32 µg/mL (≈ 70.2 µM)
[4]; strain BCA 14-7
  MIC (anti-bacterial activity): 8 µg/mL (≈ 17.6 µM)
[4]; strain BCA 14-8
  MIC (anti-bacterial activity): 8 µg/mL (≈ 17.6 µM)
[4]; strain BCA 14-10
  MIC (anti-bacterial activity): 8 µg/mL (≈ 17.6 µM)
[5]; strain SPN 16-2
  MIC (anti-bacterial activity): 4 µg/mL (≈ 8.78 µM)
[5]; strain SPN 16-4
  MIC (anti-bacterial activity): 1 µg/mL (≈ 2.19 µM)
[6]; strain MRSA 15-1
  MIC (anti-bacterial activity): 8 µg/mL (≈ 17.6 µM)
[6]; strain MRSA 15-2
  MIC (anti-bacterial activity): 32 µg/mL (≈ 70.2 µM)
[6]; strain MRSA 15-3
  MIC (anti-bacterial activity): 32 µg/mL (≈ 70.2 µM)
[6]; strain MRSA 15-4
  MIC (anti-bacterial activity): 8 µg/mL (≈ 17.6 µM)
[7]; strain MRSE 15-1
  MIC (anti-bacterial activity): 8 µg/mL (≈ 17.6 µM)
[7]; strain MRSE 15-2
  MIC (anti-bacterial activity): 8 µg/mL (≈ 17.6 µM)
[7]; strain MRSE 15-3
  MIC (anti-bacterial activity): 8 µg/mL (≈ 17.6 µM)
[7]; strain MRSE 15-7
  MIC (anti-bacterial activity): 8 µg/mL (≈ 17.6 µM)
[8]; strain MSSA 15-3
  MIC (anti-bacterial activity): 8 µg/mL (≈ 17.6 µM)
[8]; strain MSSA 15-4
  MIC (anti-bacterial activity): 8 µg/mL (≈ 17.6 µM)
[8]; strain MSSA 15-5
  MIC (anti-bacterial activity): 8 µg/mL (≈ 17.6 µM)
[8]; strain MSSA 15-6
  MIC (anti-bacterial activity): 8 µg/mL (≈ 17.6 µM)
[9]; strain MSSE 15-3
  MIC (anti-bacterial activity): 8 µg/mL (≈ 17.6 µM)
[9]; strain MSSE 15-4
  MIC (anti-bacterial activity): 2 µg/mL (≈ 4.39 µM)
[9]; strain MSSE 15-5
  MIC (anti-bacterial activity): 2 µg/mL (≈ 4.39 µM)
[9]; strain MSSE 15-6
  MIC (anti-bacterial activity): 2 µg/mL (≈ 4.39 µM)
[10]
  inhibition at 30 µM: 2%

From patent US10738028B2, “Spiro three-membered ring, spiro five-membered ring peptide deformylase inhibitor and use thereof in antibacteria and anti-tumor” (priority 2016, dated 2020)
